Patent US11931415B2, “Ophthalmic compositions” (The University of Liverpool, priority 2016, dated 2024)
Values joined by “and” are separate entries in the source; they are usually repeats but may differ in a detail not shown here. Equal entries are not always repeated.

Experiments:
[1] = literature value; cited from earlier work
[2] = physchem; settings: SiO1000, oil or lipid
[3] = atRA saturation concentration in SiO and blends using tritiated atRA (liquid scintillation)

solubility [2]: ~28 µg/mL and 95 µM
Saturation amount of atRA in SiO1000 blended with 1% PDMS-atRA ([3]; 1% (v/v) PDMS-atRA in SiO1000, after 2 weeks at ambient temperature, in air): 2.17 × 10^−3 M and 651.0 μg/mL
Saturation amount of atRA in SiO1000 blended with 5% PDMS-atRA ([3]; 5% (v/v) PDMS-atRA in SiO1000, after 2 weeks at ambient temperature, in air): 2.33 × 10^−3 M and 699.8 μg/mL
Solubility measured with tritiated atRA relative to the previous values ([3]; in SiO1000, tritiated atRA versus previous values): over 20 times
Saturation of atRA in SiO5000 ([3]; in SiO5000, tritiated atRA, n=1): 610 μg/mL and 2.03×10^−3 M
SMILES: CC1=C(/C=C/C(C)=C/C=C/C(C)=C/C(=O)O)C(C)(C)CCC1 [atRA, (2E,4E,6E,8E)-3,7-Dimethyl-9-(2,6,6-trimethylcyclohexen-1-yl)nona-2,4,6,8-tetraenoic acid]
Solubility reported for atRA in SiO1000 in the literature [1]: 20 μg/mL and 0.6×10^−4 M
